Laboratory results as given in patent US9434684B2, “Oxime-substituted amide compound and pest control agent” (Nissan Chemical Industries, Ltd., priority 2012, dated 2016).

Assays:
Sclerotinia sclerotiorum = experiment: Preventive effect against cucumber stem rot; type: in vivo; details: 48 h, 100 ppm solution (*), 2 days
Botrytis cinerea [1] = experiment: Preventive effect against cucumber gray mold (spore inoculation); type: in vivo; details: 72 h, cucumber leaves, 100 ppm solution (*), 3 days
[2] = system: Phaeosphaeria nodorum (synonym: Septoria nodorum); experiment: Preventive effect against wheat glume blotch; type: in vivo; details: Parastagonospora nodorum, 192 h, 100 ppm solution (*), 2 + 6 days
Botrytis cinerea [3] = experiment: Preventive effect against cucumber gray mold (mycelium inoculation); type: in vivo; details: 48 h, 100 ppm solution (*), 2 days

melting point: 97 to 98 °C
Compound: CC(C)O/N=C(/CNC(=O)c1ccccc1C(F)(F)F)c1ncc(C(F)(F)F)cc1Cl [Compound No. 2-020, (Z)—N-[2-[3-chloro-5-(trifluoromethyl)pyridin-2-yl]-2-(isopropoxyimino)ethyl]-2-(trifluoromethyl)benzamide]
pest or weed control at 100 ppm (Sclerotinia sclerotiorum): ≥ 70%
pest or weed control at 100 ppm (Botrytis cinerea [1]): ≥ 70%
pest or weed control at 100 ppm [2]: ≥ 70%
pest or weed control at 100 ppm (Botrytis cinerea [3]): ≥ 70%
